{"source": "ChEMBL document CHEMBL4680314", "about": "“Discovery of potent glycogen synthase kinase 3/cholinesterase inhibitors with neuroprotection as potential therapeutic agent for Alzheimer's disease” (Bioorg Med Chem, 2021)", "key": {"[1]": {"test": "Volume of distribution in Sprague-Dawley rat at 10 mg/kg, po measured upto 24 hrs by LC-MS/MS analysis", "format": "ADME, organism-based", "settings": "in vivo"}, "Homo sapiens [2]": {"species": "Homo sapiens", "test": "Selectivity index, ratio of IC50 for JNK2 (unknown origin) to IC50 for GSK-3 beta (unknown origin) by ATP competitive based analysis"}, "[3]": {"biological_target": "Glycogen synthase kinase-3 beta (Homo sapiens, UniProt P49841)", "sequence (P49841 whole entry)": "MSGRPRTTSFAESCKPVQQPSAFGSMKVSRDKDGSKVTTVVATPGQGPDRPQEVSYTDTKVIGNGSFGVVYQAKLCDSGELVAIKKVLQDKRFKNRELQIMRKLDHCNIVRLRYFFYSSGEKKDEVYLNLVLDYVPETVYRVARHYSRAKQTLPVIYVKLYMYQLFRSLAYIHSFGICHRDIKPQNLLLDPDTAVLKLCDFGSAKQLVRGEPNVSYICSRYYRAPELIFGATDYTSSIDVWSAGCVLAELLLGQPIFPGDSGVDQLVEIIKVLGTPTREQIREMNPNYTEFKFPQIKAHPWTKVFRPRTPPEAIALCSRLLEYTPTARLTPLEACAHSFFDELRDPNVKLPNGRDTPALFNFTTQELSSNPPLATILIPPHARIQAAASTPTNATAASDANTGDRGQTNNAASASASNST", "test": "Inhibition of GSK3beta (unknown origin) by ATP competitive based analysis"}, "[4]": {"test": "AUC (0 to infinity) in Sprague-Dawley rat at 10 mg/kg, po by LC-MS/MS analysis", "format": "ADME, organism-based", "set-up": "route oral, time infinity, dose 10 mg/kg", "settings": "in vivo"}, "[5]": {"test": "AUC (0 to infinity) in Sprague-Dawley rat at 5 mg/kg, iv by LC-MS/MS analysis", "format": "ADME, organism-based", "set-up": "route intravenous, dose 5 mg/kg", "settings": "in vivo"}, "BV-2 [6]": {"test_system": "BV-2", "test": "Anti-inflammatory activity in mouse BV-2 cells assessed as reduction in LPS-induced ROS production at 3 uM incubated for 1 hr followed by LPS stimulation and measured after 24 hrs by DCFH-DA staining based inverted fluorescence microscopy", "format": "functional, cell-based", "settings": "time 25.0 hrs"}, "[7]": {"biological_target": "Glycogen synthase kinase-3 beta (Mus musculus) (UniProt Q9WV60)", "sequence (Q9WV60 whole entry, looked up)": "as the sequence (P49841 whole entry) above, with T390P, T392A, A400T, T402A counted along it", "test": "Inhibition of GSK3beta in mouse N2a cells overexpressing human tau assessed as tau phosphorylation at Ser396 residue at 2 uM incubated for 6 hrs by Western blot analysis (reference value: […] %)", "format": "cell-based", "set-up": "scale not given: the % may be the effect or the level left"}, "[8]": {"biological_target": "Dual specificity tyrosine-phosphorylation-regulated kinase 1B (Homo sapiens, UniProt Q9Y463)", "sequence (Q9Y463 whole entry)": "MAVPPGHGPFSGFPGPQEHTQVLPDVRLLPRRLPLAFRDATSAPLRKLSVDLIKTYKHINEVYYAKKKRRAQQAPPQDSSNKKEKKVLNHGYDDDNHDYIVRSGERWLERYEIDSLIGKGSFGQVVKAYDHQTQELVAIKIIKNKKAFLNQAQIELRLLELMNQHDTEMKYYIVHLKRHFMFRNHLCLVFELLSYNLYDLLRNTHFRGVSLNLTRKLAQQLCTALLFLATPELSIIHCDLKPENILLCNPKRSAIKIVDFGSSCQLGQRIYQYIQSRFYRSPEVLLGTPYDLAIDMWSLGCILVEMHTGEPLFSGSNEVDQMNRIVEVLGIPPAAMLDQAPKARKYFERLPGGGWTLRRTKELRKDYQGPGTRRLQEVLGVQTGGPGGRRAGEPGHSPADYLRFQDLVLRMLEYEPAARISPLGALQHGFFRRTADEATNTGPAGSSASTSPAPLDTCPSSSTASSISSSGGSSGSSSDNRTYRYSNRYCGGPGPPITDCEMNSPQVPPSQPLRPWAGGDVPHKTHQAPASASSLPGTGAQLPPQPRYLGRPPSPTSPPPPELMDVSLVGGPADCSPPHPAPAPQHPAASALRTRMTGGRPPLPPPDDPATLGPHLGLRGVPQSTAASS", "test": "Inhibition of DYRK1B (unknown origin) by ATP competitive based analysis"}, "Acetylcholinesterase": {"biological_target": "Acetylcholinesterase (Homo sapiens, UniProt P22303)", "sequence (P22303 whole entry)": "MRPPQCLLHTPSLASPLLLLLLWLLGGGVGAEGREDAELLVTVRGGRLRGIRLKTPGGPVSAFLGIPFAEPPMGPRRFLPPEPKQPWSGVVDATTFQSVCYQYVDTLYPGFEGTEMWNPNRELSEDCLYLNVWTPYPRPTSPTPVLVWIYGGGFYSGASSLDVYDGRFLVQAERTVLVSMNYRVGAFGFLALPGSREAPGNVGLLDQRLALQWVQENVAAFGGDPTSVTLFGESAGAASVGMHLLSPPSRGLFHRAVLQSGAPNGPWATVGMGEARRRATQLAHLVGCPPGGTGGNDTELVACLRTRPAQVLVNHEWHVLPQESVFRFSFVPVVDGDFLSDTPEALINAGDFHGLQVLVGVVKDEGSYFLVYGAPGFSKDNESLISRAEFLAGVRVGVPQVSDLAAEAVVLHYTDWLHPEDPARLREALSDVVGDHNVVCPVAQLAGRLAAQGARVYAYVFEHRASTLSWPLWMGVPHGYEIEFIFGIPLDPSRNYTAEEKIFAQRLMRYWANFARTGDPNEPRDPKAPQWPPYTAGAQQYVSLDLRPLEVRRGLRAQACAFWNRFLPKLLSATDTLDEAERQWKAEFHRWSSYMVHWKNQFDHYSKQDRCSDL", "test": "Inhibition of human recombinant AChE expressed in HEK293 cells using acetylthiocholine iodide as substrate incubated for 10 mins by Ellman's method", "format": "cell-based"}, "Homo sapiens [9]": {"species": "Homo sapiens", "test": "Selectivity index, ratio of IC50 for GSK3alpha (unknown origin) to IC50 for GSK-3 beta (unknown origin) by ATP competitive based analysis"}, "[10]": {"test": "MRT (0 to t) in Sprague-Dawley rat at 10 mg/kg, po measured upto 24 hrs by LC-MS/MS analysis", "format": "ADME, organism-based", "settings": "in vivo"}, "[11]": {"test": "Drug uptake in mouse BV-2 cells at 25 uM incubated for 1 hr measured per million cells by LC-MS/MS analysis", "format": "ADME, cell-based", "settings": "bv-2, 1 h"}, "[12]": {"test": "Cmax in Sprague-Dawley rat at 5 mg/kg, iv measured upto 24 hrs by LC-MS/MS analysis", "format": "ADME, organism-based", "set-up": "route intravenous, dose 5 mg/kg, time <=24", "settings": "in vivo"}, "[13]": {"biological_target": "Cyclin-dependent kinase 4 (Homo sapiens, UniProt P11802)", "test": "Inhibition of CDK4 (unknown origin) by ATP competitive based analysis"}, "[14]": {"biological_target": "Mitogen-activated protein kinase 10 (Homo sapiens, UniProt P53779)", "sequence (P53779 whole entry)": "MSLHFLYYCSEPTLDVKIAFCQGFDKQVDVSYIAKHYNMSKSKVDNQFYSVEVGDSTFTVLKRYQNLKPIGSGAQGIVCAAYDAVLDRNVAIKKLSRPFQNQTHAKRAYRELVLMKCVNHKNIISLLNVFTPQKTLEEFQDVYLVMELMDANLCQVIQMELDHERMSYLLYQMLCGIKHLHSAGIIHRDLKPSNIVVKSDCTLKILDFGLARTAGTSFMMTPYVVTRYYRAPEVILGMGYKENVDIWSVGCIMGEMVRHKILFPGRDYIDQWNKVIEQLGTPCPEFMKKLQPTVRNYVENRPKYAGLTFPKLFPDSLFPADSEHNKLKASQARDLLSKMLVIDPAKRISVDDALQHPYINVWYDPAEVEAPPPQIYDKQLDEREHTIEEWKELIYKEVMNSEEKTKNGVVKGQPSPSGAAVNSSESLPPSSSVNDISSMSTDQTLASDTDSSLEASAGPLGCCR", "test": "Inhibition of JNK3 (unknown origin) by ATP competitive based analysis"}, "[15]": {"biological_target": "Mitogen-activated protein kinase 11 (Homo sapiens, UniProt Q15759)", "sequence (Q15759 whole entry)": "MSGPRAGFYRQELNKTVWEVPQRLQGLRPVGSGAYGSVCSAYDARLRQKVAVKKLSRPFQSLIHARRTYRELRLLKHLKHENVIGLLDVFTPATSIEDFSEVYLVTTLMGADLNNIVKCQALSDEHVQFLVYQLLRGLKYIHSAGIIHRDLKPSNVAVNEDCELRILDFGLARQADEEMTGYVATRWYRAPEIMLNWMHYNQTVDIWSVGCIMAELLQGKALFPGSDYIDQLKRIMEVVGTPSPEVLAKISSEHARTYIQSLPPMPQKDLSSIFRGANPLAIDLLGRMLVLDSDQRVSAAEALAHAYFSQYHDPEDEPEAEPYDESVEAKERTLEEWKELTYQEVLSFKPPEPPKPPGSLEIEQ", "test": "Inhibition of p38MAPK beta (unknown origin) by ATP competitive based analysis"}, "Homo sapiens [16]": {"species": "Homo sapiens", "test": "Selectivity index, ratio of IC50 for CDK6 (unknown origin) to IC50 for GSK-3 beta (unknown origin) by ATP competitive based analysis"}, "[17]": {"test": "Ratio of drug level in ICR mouse brain to blood at 15 mg/kg, po measured after 90 mins by LC-MS/MS analysis", "format": "ADME, organism-based", "settings": "1.5 h"}, "[18]": {"biological_target": "Mitogen-activated protein kinase 12 (Homo sapiens, UniProt P53778)", "test": "Inhibition of p38MAPK gamma (unknown origin) by ATP competitive based analysis"}, "[19]": {"biological_target": "Glycogen synthase kinase-3 beta (Mus musculus) (UniProt Q9WV60)", "test": "Inhibition of GSK3beta in mouse N2a cells overexpressing human tau assessed as tau phosphorylation at Ser396 residue at 0.074 uM incubated for 6 hrs by Western blot analysis (reference value: […] %)", "format": "cell-based", "set-up": "scale not given: the % may be the effect or the level left"}, "[20]": {"test": "Oral bioavailability in Sprague-Dawley rat at 10 mg/kg measured upto 24 hrs by LC-MS/MS analysis", "format": "ADME, organism-based", "settings": "in vivo"}, "[21]": {"biological_target": "Mitogen-activated protein kinase 3 (Homo sapiens, UniProt P27361)", "sequence (P27361 whole entry)": "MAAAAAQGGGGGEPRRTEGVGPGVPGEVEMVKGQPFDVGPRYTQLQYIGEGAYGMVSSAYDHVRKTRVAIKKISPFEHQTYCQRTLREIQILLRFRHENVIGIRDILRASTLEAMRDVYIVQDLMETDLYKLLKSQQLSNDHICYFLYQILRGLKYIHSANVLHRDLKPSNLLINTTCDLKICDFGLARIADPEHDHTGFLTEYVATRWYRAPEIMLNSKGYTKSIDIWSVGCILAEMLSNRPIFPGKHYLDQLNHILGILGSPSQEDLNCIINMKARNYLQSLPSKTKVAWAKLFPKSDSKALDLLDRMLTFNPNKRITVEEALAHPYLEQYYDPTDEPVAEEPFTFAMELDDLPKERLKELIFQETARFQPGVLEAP", "test": "Inhibition of ERK1 (unknown origin) by ATP competitive based analysis"}, "[22]": {"test": "AUC (0 to 24 hrs) in Sprague-Dawley rat at 10 mg/kg, po measured upto 24 hrs by LC-MS/MS analysis", "format": "ADME, organism-based", "set-up": "route oral, dose 10 mg/kg, time <=24", "settings": "in vivo"}, "BV-2 [23]": {"test_system": "BV-2", "test": "Cytotoxicity against mouse BV-2 cells assessed as effect on cell morphology", "format": "cell-based"}, "Homo sapiens [24]": {"species": "Homo sapiens", "test": "Selectivity index, ratio of IC50 for p38MAPK delta (unknown origin) to IC50 for GSK-3 beta (unknown origin) by ATP competitive based analysis"}, "[25]": {"test": "Volume of distribution in Sprague-Dawley rat at 5 mg/kg, iv measured upto 24 hrs by LC-MS/MS analysis", "format": "ADME, organism-based", "settings": "in vivo"}, "[26]": {"biological_target": "Cyclin-dependent kinase 7 (Homo sapiens, UniProt P50613)", "sequence (P50613 whole entry)": "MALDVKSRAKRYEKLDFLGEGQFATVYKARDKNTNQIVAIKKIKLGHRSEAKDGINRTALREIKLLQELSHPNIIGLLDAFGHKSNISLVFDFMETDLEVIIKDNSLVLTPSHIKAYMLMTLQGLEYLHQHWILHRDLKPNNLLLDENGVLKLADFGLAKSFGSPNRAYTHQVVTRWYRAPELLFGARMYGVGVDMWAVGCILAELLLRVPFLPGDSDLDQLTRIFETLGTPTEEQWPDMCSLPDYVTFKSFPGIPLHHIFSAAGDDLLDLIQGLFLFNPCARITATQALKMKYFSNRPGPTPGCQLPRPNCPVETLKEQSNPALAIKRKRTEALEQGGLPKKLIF", "test": "Inhibition of CDK7 (unknown origin) by ATP competitive based analysis"}, "Homo sapiens [27]": {"species": "Homo sapiens", "test": "Selectivity index, ratio of IC50 for CDK1 (unknown origin) to IC50 for GSK-3 beta (unknown origin) by ATP competitive based analysis"}, "BV-2 [28]": {"test_system": "BV-2", "test": "Anti-inflammatory activity in mouse BV-2 cells assessed as reduction in LPS-induced TNFalpha production incubated for 1 hr followed by LPS stimulation and measured after 24 hrs by ELISA", "format": "functional, cell-based", "settings": "dose 2-8 µM, time 25.0 hrs"}, "[29]": {"biological_target": "Dual specificity tyrosine-phosphorylation-regulated kinase 1A (Homo sapiens, UniProt Q13627)", "test": "Inhibition of DYRK1A (unknown origin) by ATP competitive based analysis"}, "[30]": {"biological_target": "Cyclin-dependent kinase 1 (Homo sapiens, UniProt P06493)", "sequence (P06493 whole entry)": "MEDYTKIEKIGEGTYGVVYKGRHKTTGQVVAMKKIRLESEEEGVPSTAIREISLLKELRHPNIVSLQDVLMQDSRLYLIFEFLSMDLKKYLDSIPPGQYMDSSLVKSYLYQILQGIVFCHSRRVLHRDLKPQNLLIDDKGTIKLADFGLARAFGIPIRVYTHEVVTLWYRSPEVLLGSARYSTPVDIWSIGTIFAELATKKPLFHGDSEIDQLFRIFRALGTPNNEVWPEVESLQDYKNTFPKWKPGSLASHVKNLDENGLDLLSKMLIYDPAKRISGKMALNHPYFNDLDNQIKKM", "test": "Inhibition of CDK1 (unknown origin) by ATP competitive based analysis"}, "Homo sapiens [31]": {"species": "Homo sapiens", "test": "Selectivity index, ratio of IC50 for […] IC50 for GSK-3 beta (unknown origin) by ATP competitive based analysis"}, "[32]": {"test": "Half life in Sprague-Dawley rat at 10 mg/kg, po measured upto 24 hrs by LC-MS/MS analysis", "format": "ADME, organism-based", "settings": "in vivo"}, "Homo sapiens [33]": {"species": "Homo sapiens", "test": "Selectivity index, ratio of IC50 for p38MAPK gamma (unknown origin) to IC50 for GSK-3 beta (unknown origin) by ATP competitive based analysis"}, "[34]": {"biological_target": "Mitogen-activated protein kinase 13 (Homo sapiens, UniProt O15264)", "sequence (O15264 whole entry)": "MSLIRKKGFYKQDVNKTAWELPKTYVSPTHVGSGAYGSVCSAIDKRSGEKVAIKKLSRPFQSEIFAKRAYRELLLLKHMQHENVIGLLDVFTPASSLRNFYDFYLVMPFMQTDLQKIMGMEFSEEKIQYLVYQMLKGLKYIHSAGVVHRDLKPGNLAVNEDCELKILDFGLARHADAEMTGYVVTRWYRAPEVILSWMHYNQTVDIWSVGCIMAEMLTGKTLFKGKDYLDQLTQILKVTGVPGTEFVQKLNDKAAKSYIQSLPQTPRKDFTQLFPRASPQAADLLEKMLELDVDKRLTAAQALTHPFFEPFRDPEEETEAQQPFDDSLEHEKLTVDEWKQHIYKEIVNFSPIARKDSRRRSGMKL", "test": "Inhibition of p38MAPK delta (unknown origin) by ATP competitive based analysis"}, "[35]": {"biological_target": "Glycogen synthase kinase-3 beta (Mus musculus) (UniProt Q9WV60)", "test": "Inhibition of GSK3beta in mouse N2a cells overexpressing human tau assessed as tau phosphorylation at Ser396 residue at 0.22 uM incubated for 6 hrs by Western blot analysis (reference value: […] %)", "format": "cell-based", "set-up": "scale not given: the % may be the effect or the level left"}, "[36]": {"biological_target": "Glycogen synthase kinase-3 alpha (Homo sapiens, UniProt P49840)", "sequence (P49840 whole entry)": "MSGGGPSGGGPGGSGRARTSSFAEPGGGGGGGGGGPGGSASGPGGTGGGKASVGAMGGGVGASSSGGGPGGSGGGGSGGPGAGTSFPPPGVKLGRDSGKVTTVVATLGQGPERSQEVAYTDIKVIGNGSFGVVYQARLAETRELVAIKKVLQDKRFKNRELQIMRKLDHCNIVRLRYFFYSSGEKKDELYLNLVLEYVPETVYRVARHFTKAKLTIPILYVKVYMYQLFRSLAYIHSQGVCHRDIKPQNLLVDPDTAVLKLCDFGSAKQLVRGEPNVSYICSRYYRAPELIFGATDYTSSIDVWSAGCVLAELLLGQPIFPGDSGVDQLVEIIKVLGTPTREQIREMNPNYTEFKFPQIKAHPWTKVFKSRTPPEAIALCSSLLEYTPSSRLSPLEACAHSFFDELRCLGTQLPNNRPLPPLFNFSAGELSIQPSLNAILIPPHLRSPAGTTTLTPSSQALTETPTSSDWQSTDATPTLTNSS", "test": "Inhibition of GSK3alpha (unknown origin) by ATP competitive based analysis"}, "[37]": {"biological_target": "Cyclin-dependent kinase 9 (Homo sapiens, UniProt P50750)", "sequence (P50750 whole entry)": "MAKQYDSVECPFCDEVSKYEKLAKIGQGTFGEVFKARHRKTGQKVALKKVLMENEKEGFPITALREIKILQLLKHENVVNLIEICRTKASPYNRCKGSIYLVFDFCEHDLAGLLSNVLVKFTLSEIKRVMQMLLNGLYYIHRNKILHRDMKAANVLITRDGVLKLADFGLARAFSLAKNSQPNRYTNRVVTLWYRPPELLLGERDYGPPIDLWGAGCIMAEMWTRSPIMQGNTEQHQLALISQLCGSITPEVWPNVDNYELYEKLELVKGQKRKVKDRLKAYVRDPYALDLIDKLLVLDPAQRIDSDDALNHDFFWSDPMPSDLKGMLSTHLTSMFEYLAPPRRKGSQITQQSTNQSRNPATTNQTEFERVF", "test": "Inhibition of CDK9 (unknown origin) by ATP competitive based analysis"}, "Homo sapiens [38]": {"species": "Homo sapiens", "test": "Selectivity index, ratio of IC50 for p38MAPK alpha (unknown origin) to IC50 for GSK-3 beta (unknown origin) by ATP competitive based analysis"}, "[39]": {"test": "Cmax in Sprague-Dawley rat at 10 mg/kg, po measured upto 24 hrs by LC-MS/MS analysis", "format": "ADME, organism-based", "set-up": "route oral, dose 10 mg/kg, time <=24", "settings": "in vivo"}}, "note": "The source made the active and inactive calls. No cut-off for these calls is given here.", "data": [{"compound": "NC(=O)c1sc(-c2ccnc(NC(=O)C3CC3)c2)nc1OCCCC1CCN(Cc2ccc(F)cc2)CC1", "values": [{"measurement": "Vd", "setting": "[1]", "value": 60.7, "unit": "L/kg"}, {"measurement": "Ratio IC50", "setting": "Homo sapiens [2]", "value": 200}, {"measurement": "IC50", "setting": "[3]", "value": 16.1, "unit": "nM"}, {"measurement": "AUC(0-inf)", "setting": "[4]", "value": 1260, "unit": "ng·h/mL"}, {"measurement": "AUC(0-inf)", "setting": "[5]", "value": 1980, "unit": "ng·h/mL"}, {"measurement": "Activity", "setting": "BV-2 [6]", "value": "Active"}, {"measurement": "Activity", "setting": "[7]", "value": 14.3, "unit": "%"}, {"measurement": "IC50", "setting": "[8]", "value": 37.8, "unit": "nM"}, {"measurement": "IC50", "setting": "Acetylcholinesterase", "value": 310, "unit": "nM"}, {"measurement": "Ratio IC50", "setting": "Homo sapiens [9]", "value": 200}, {"measurement": "MRT last at 24 h", "setting": "[10]", "value": 9.9, "unit": "h"}, {"measurement": "Drug uptake", "setting": "[11]", "value": 722, "unit": "ng"}, {"measurement": "Cmax", "setting": "[12]", "value": 1000, "unit": "ng/mL"}, {"measurement": "IC50", "setting": "[13]", "value": "> 300", "unit": "nM"}, {"measurement": "IC50", "setting": "[14]", "value": "> 300", "unit": "nM"}, {"measurement": "IC50", "setting": "[15]", "value": "> 300", "unit": "nM"}, {"measurement": "Ratio IC50", "setting": "Homo sapiens [16]", "value": 200}, {"measurement": "Ratio", "setting": "[17]", "value": 21.6, "unit": "ng/kg"}, {"measurement": "IC50", "setting": "[18]", "value": "> 300", "unit": "nM"}, {"measurement": "Activity", "setting": "[19]", "value": 91.1, "unit": "%"}, {"measurement": "bioavailability", "setting": "[20]", "value": 30.3, "unit": "%"}, {"measurement": "IC50", "setting": "[21]", "value": "> 300", "unit": "nM"}, {"measurement": "AUC(0-t)", "setting": "[22]", "value": 1160, "unit": "ng·h/mL"}, {"measurement": "Activity", "setting": "BV-2 [23]", "value": "Non-Toxic"}, {"measurement": "Ratio IC50", "setting": "Homo sapiens [24]", "value": 200}, {"measurement": "Vd", "setting": "[25]", "value": 15.8, "unit": "L/kg"}, {"measurement": "IC50", "setting": "[26]", "value": "> 300", "unit": "nM"}, {"measurement": "Ratio IC50", "setting": "Homo sapiens [27]", "value": 200}, {"measurement": "Activity", "setting": "BV-2 [28]", "value": "Dose-dependent effect"}, {"measurement": "IC50", "setting": "[29]", "value": 8.1, "unit": "nM"}, {"measurement": "IC50", "setting": "[30]", "value": "> 300", "unit": "nM"}, {"measurement": "Ratio IC50", "setting": "Homo sapiens [31]", "value": 200}, {"measurement": "half-life", "setting": "[32]", "value": 5.8, "unit": "h"}, {"measurement": "Ratio IC50", "setting": "Homo sapiens [33]", "value": 200}, {"measurement": "IC50", "setting": "[34]", "value": "> 300", "unit": "nM"}, {"measurement": "Activity", "setting": "[35]", "value": 63.3, "unit": "%"}, {"measurement": "IC50", "setting": "[36]", "value": 12, "unit": "nM"}, {"measurement": "IC50", "setting": "[37]", "value": 108, "unit": "nM"}, {"measurement": "Ratio IC50", "setting": "Homo sapiens [38]", "value": 200}, {"measurement": "Cmax", "setting": "[39]", "value": 132, "unit": "ng/mL"}]}]}
